Results from patent US20230331792A1, “NEW MULTI-FUNCTIONAL OLIGOPEPTIDES” (ENLITISA (SHANGHAI) PHARMACEUTICAL CO., LTD., priority 2019, published 2023).
Square brackets hold non-standard residues; d marks the D form. Ends that are not written are not given here. Dopa = N[C@@H](Cc1ccc(O)c(O)c1)C(=O)O; Hyp = O=C(O)[C@@H]1C[C@@H](O)CN1

How the values were obtained:
Type in all cases: in vivo
BALB/c mice = experiment: Mouse ear swelling model (xylene); conditions: for Swelling rate: about 0.1 g on right ear 1 h before xylene; for effect on edema caused by inflammation: hydrogels 0.5 and 1 mg/g
Experimental: 30 Health male BALB/c mice with 6-8 weeks old and average body weight of 18-25 g were supplied by Changzhou Cvens Experimental Animal Co., Ltd. and housed and cared for about 1 week prior to the experiment. […] The mice were randomly divided into 6 groups as described in Table 8, with 5 mice in each group. Compound A and Compound B were dissolved at concentrations indicated in Table 8 below (L=low dose, M=medium dose, H=high dose).
All excipients were obtained from Sinopharm Chemical Reagent Co. Ltd. The gels were made with water for injection.
Dexamethasone acetate cream (Dex cream; 5 mg/10 g (which means that there was 5 mg Dex contained in 10 g of the cream), Fuyuan Pharmaceutical Co., Ltd., Anhui, China) was used as positive control.
The left ear of each mouse was used as an autologous control. The right ear of each mouse was treated with the above compounds in the stated concentrations (Table 8).
About 0.1 g of the various gels, and Dex cream were applied to the right ear of mice in each group, both inside and outside. The blank gel base was applied on the ears in the model groups. After 1 hour, 20 μL of xylene (Shanghai Aladdin Bio-Chem Technology Co., Ltd.) was applied to the same ear of each mouse.
The mice were sacrificed by cervical dislocation 40 minutes after xylene application. The left and right ears were cut off. An EMS skin biopsy punch with a diameter of 8 mm was used to take a piece of the ear from the same site on both ears. The weights were recorded, and the swelling rate was calculated as a percentage according to the following formula:
(right ear weight−left ear weight)/left ear weight×100

Sprague Dawley (SD) rats = experiment: Croton oil-induced anal swelling model in rats I (Evans blue content); conditions: gel 0.5 and 1 mg/g, 200 μL twice a day for three days
Experimental: A croton oil mixture was prepared by mixing one part distilled water, four parts of pyridine (Nanjing Chemical Reagent Co., Ltd.), five parts of ether (China Pharmaceutical Group Chemical Reagents Co., Ltd.) and ten parts of 6% croton oil (Shanghai Yuanye Biotechnology Co., Ltd.) ether solution.
6-8 weeks old Sprague Dawley (SD) rats with average body weights of 180-220 g were supplied by Changzhou Cvens Experimental Animal Co. Ltd. (Changzhou, Jiangsu Province, China), half male and half female. Prior to any experiments being conducted, rats were housed under standardized conditions (at a constant temperature of 22±2° C., with alternating 12-hour periods of light and darkness) and were fed on a standard mouse diet with water, for about a week.
56 rats were randomly divided into 7 groups (as shown in Table 11 below), with 8 rats in each group. Compound A, Compound B and MaYinglong hemorrhoids ointment were dissolved at concentrations indicated in Table 11 below (L=low dose, M=medium dose, H=high dose).
The rats were anesthetized by isoflurane (China Pharmaceutical Group Chemical Reagents Co., Ltd.) inhalation. 75% alcohol cotton ball was used to disinfect the skin around the anus. […]
All samples were transferred to a 55° C. water bath or a heat block. […] Absorbance was measured at 610 nm, using 500 μL of formamide as a blank. […]

db/db mice = experiment: Diabetic wound model, VEGF and TGF-β1 content in wound tissues; conditions: topical once daily; 1.65, 16.45, 164.5 μg/wound/day; vs model group
Experimental: 8 to 12 week old male db/db mice (C57BL/KsJ-db/db, with a body weight of 35-45 g/mouse) supplied by Changzhou Cvens Experimental Animal Co. Ltd. Prior to any experiments being conducted, mice were housed under standardized conditions at a constant temperature of 22±2° C., with alternating 12-hour periods of light and darkness, and were fed on a standard mouse diet with water, for about a week.
General anesthesia was induced using intraperitoneal 3% chloral hydrate (Sinopharm Chemical Reagent Co., Ltd.; 1 mL/10 g of body weight). The hair on the back was shaved by a baby hair shaver and depilated with cream. The skin area was wiped and sterilized with 75% alcohol twice.
An EMS skin biopsy punch with an 18 mm diameter was used to make a round wound on the back. The full thickness of skin was removed, and the depth of the wound reached the fascia. Wounds were left open without a suture.
The model group was given same amount of normal saline. There were 12 mice in each group apart from the control group, which had 8 mice. The skin pieces taken during wound creation were used as the samples at Day 7 for the control group.
Recombinant Human Epidermal Growth Factor (rhEGF) was purchased and prepared according to the instructions by the manufacturer. The lyophilized rhEGF powder (100000 IU/vial) was dissolved in 20 mL of normal saline to make a solution with a concentration of 5000 IU/mL. The working dose of rhEGF for this experiment was 1285 IU/wound.
Compound A and Compound B were dissolved in saline at concentrations indicated in Table 7 below (L=low dose, M=medium dose, H=high dose). 50 μL of each solution was applied to the wound surfaces every day.
Vascular endothelial growth factor (VEGF) and transforming growth factor-beta 1 (TGF-β1) play prominent roles in wound healing process. VEGF and TGF-β1 are often co-expressed in tissues in which angiogenesis occurs.

Row | Substance | Swelling rate (BALB/c mice; hydrogel 0.5 mg/g (L)) [%] | Swelling rate (BALB/c mice; hydrogel 1 mg/g (H)) [%] | effect on edema caused by inflammation (BALB/c mice) | inflammatory swelling, EB content in rectal and anal tissues (FIG. 5) (Sprague Dawley (SD) rats) | content of TGF-β1 in wound tissues (FIG. 3) (db/db mice) | content of VEGF in wound tissues (FIG. 2) (db/db mice)
1 | {[(Dopa-Ala-Lys-Pro-Ser-Tyr-Hyp-Hyp-Thr-Tyr-Lys)2-Lys]2-Lys}2-Lys ([Dopa]AKPSY[Hyp][Hyp]TYKKKK; also: branched lysine dendrimer {[(peptide)2-Lys]2-Lys}2-Lys) [Compound A] | 63 | 43 | significantly eliminate the edema caused by inflammation | may reduce inflammatory swelling caused by croton oil application | stimulated the production | stimulated the production
2 | {[(Ala-Lys-Pro-Ser-Tyr-Hyp-Hyp-Thr-DOPA-Lys)2-Lys]2-Lys}2-Lys (AKPSY[Hyp][Hyp]T[Dopa]KKKK; also: branched lysine dendrimer {[(peptide)2-Lys]2-Lys}2-Lys) [Compound B] | 43 | 38 | significantly eliminate the edema caused by inflammation | may reduce inflammatory swelling caused by croton oil application | stimulated the production | stimulated the production
